Measurements taken from publication PMC6384650, “Phenolic Compounds of Catalpa speciosa, Taxus cuspidata, and Magnolia acuminata have Antioxidant and Anticancer Activity” (Molecules, 2019).
≈ marks a conversion by molar mass, not a printed value. Structures can show the parent of a compound that is named as a salt.

Experiments:
[1] = test system: Jurkat cells (T-cell lymphoblast like); test: MTT antiproliferative assay, Jurkat; format: cell-based; conditions: 2 days incubation; for IC50: Homo sapiens, Jurkat, 48 h, read-out: In vitro antiproliferative activity IC50, Jurkat
Procedure: (§1) Fresh bark (0.25 g) was dried at 35 °C until a constant weight was obtained. The samples were ground and then dissolved in 3 mL methanol (99%) for 1 h in the dark at 25 °C. Bark solutions were centrifuged for 5 min at 10,000 rpm (7000 × g) and the supernatant was obtained (~2.7 mL). The samples were passed through a 0.45 μm polytetrafluroethylene (PTFE) nylon filter and then stored at −80 °C. Analytical grade chemicals (Sigma Aldrich, Germany) were used in the bioassays. The cancer cell lines, including cervical adenocarcinoma (HeLa), breast adenocarcinoma (MCF-7), T-cell lymphoblast like (Jurkat), urinary bladder carcinoma (T24), and colon adenocarcinoma (HT-29), were obtained from the American Type Culture Collection (ATCC).
(§2) The antiproliferative activity of bark extracts was examined in different cancer cells lines (HeLa, MCF-7, Jurkat, HT-29, and T24) and in normal cells (HEK-293) by using a modified 3-(4,5-dimethylthiazol-2-yl)-2,5-diphenyltetrazolium bromide (MTT) method. The cells were grown in 75 cm^2 flasks in MEM supplemented with 10% FBS, 17.8 mM NaHCO3, 0.1 mM non-essential amino acids, and 1 mM sodium pyruvate. They were seeded into 96-well plates at a density of 4 × 10^−4 per well, left to stand in 270 µL of medium, and incubated in an atmosphere of 37 °C and 5% CO2. Sterilin-filtered leaf extracts were added to the culture media in microtiter plates. Five doses of bark extracts were used at final concentrations of 50, 100, 200, 300, and 400 µg/mL in culture medium. Untreated cells were considered used as negative controls and vinblastine sulfate and taxol treatment were used as the positive controls. After incubation of the culture medium for 2 days at 37 °C and 5% CO2, phosphate buffer saline (PBS) washes were performed to remove extract traces and the medium supplied was 12 mM MTT dissolved in PBS. Subsequently, 0.04 N HCl dissolved in isopropanol was mixed in each well, left to stand for 40 min, and the absorbance at 570 nm was determined by using a microplate reader (Thermo Fisher Scientific, Waltham, Massachusetts, USA). The percentage inhibition of antiproliferation activity was calculated in triplicate:
(§3) % Inhibition = (Abs.570 nm control—Abs.570 nm sample)/Abs.570 nm control × 100. Subsequently, IC50 values were obtained by plotting the percentage of cell viability against the extract concentration and expressed in µg/mL.

[2] = test system: cancer cells; test: Apoptotic cell population by flow cytometry (Annexin V); format: cell-based; conditions: treatment at IC50, 24/48 h, versus untreated control
Procedure: Flow cytometry (FAC Scan, Becton Dickinson, Iowa, USA) was used to measure the apoptotic cell population. […] The cells were detached by using trypsin (0.25%) in Hank’s balanced salt solution (Thermo Fisher Scientific, Berlin, Germany). For staining the cells, the Annexin V apoptosis detection kit (Sigma, St. Louis, MO, USA) was used. Briefly, the cells were incubated in the dark at 37 °C for 15 min and washed with cold PBS, and the apoptotic populations were shown by the flow cytometer in quadrants: Lower left (viable cells), upper left (necrotic cells), lower right (early apoptotic cells), and upper right (late apoptotic cells).

[3] = test system: HT-29 cells (colon adenocarcinoma); test: MTT antiproliferative assay, HT-29; format: cell-based; conditions: 2 days incubation; for IC50: Homo sapiens, HT-29, 48 h, read-out: In vitro antiproliferative activity IC50, HT-29
Procedure: as §1, §2, §3

[4] = test system: MCF-7 cells (breast adenocarcinoma); test: MTT antiproliferative assay, MCF-7; format: cell-based; conditions: 2 days incubation; for IC50: Homo sapiens, MCF7, 48 h, read-out: In vitro antiproliferative activity IC50, MCF-7
Procedure: as §1, §2, §3

[5] = test system: HeLa cells (cervical adenocarcinoma); test: MTT antiproliferative assay, HeLa; format: cell-based; conditions: 2 days incubation; for IC50: Homo sapiens, HeLa, 48 h, read-out: In vitro antiproliferative activity IC50, HeLa
Procedure: as §1, §2, §3

[6] = test system: MCF-7, HeLa, Jurkat, T24, and HT-29 cells; test: MTT antiproliferative assay, cancer cell line panel; format: cell-based; conditions: most cancer cells
Procedure: The samples were ground and then dissolved in 3 mL methanol (99%) for 1 h in the dark at 25 °C. Bark solutions were centrifuged for 5 min at 10,000 rpm (7000 × g) and the supernatant was obtained (~2.7 mL). The samples were passed through a 0.45 μm polytetrafluroethylene (PTFE) nylon filter and then stored at −80 °C. Analytical grade chemicals (Sigma Aldrich, Germany) were used in the bioassays. The cancer cell lines, including cervical adenocarcinoma (HeLa), breast adenocarcinoma (MCF-7), T-cell lymphoblast like (Jurkat), urinary bladder carcinoma (T24), and colon adenocarcinoma (HT-29), were obtained from the American Type Culture Collection (ATCC). […] The cells were grown in 75 cm^2 flasks in MEM supplemented with 10% FBS, 17.8 mM NaHCO3, 0.1 mM non-essential amino acids, and 1 mM sodium pyruvate. […] Sterilin-filtered leaf extracts were added to the culture media in microtiter plates. […] Untreated cells were considered used as negative controls and vinblastine sulfate and taxol treatment were used as the positive controls. After incubation of the culture medium for 2 days at 37 °C and 5% CO2, phosphate buffer saline (PBS) washes were performed to remove extract traces and the medium supplied was 12 mM MTT dissolved in PBS. Subsequently, 0.04 N HCl dissolved in isopropanol was mixed in each well, left to stand for 40 min, and the absorbance at 570 nm was determined by using a microplate reader (Thermo Fisher Scientific, Waltham, Massachusetts, USA). The percentage inhibition of antiproliferation activity was calculated in triplicate: % Inhibition = (Abs.570 nm control—Abs.570 nm sample)/Abs.570 nm control × 100. Subsequently, IC50 values were obtained by plotting the percentage of cell viability against the extract concentration and expressed in µg/mL.

[7] = test system: HEK-293 cells; test: MTT antiproliferative assay, normal HEK-293 cells; format: cell-based; conditions: 2 days incubation; for IC50: Homo sapiens, HEK293, 48 h, read-out: In vitro antiproliferative activity IC50, HEK-293
Procedure: as §2, §3

[8] = test system: T24 cells (urinary bladder carcinoma); test: MTT antiproliferative assay, T24; format: cell-based; conditions: 2 days incubation; for IC50: Homo sapiens, T-24, 48 h, read-out: In vitro antiproliferative activity IC50, T24
Procedure: as §1, §2, §3

[9] = β-carotene-linoleic acid assay; conditions: absorbance 470 nm
Procedure: (§4) The DPPH and β-carotene-linoleic acid assays were used in the Faculty of Food and Agricultural Sciences, King Saud University to determine the antioxidant activities of bark extract. For the DPPH assay, the samples were incubated for 30 min and the absorbance of the samples at 517 nm was measured. In the β-carotene-linoleic acid assay, the absorbance of the samples at 470 nm was measured. […] A standard antioxidant (butylated hydroxytoluene, BHT) was used as a positive control and the inhibition by the concentration of each sample was compared with that of the BHT and blank. The antioxidant activities were repeated twice in duplicates.

[10] = DPPH free radical scavenging assay; conditions: 30 min incubation, absorbance 517 nm
Procedure: as §4

Molecule	In vitro antiproliferative activity IC50, Jurkat [1]	In vitro antiproliferative activity IC50, HT-29 [3]	In vitro antiproliferative activity IC50, MCF-7 [4]	In vitro antiproliferative activity IC50, HeLa [5]	In vitro antiproliferative activity IC50, T24 [8]	IC50 [1]	IC50 [3]	IC50 [4]	IC50 [5]	IC50 [8]	Antiproliferative activity against cancer cells (in words) [6]	In vitro antiproliferative activity IC50, HEK-293 [7]	IC50 [7]	also measured
O=C(O)c1ccc(O)c(O)c1 [Protocatechuic acid, 3,4-dihydroxybenzoic acid]	–	–	–	–	–	47.4 ± 2.1 µg/mL (≈ 307 µM)	95.3 ± 3.3 µg/mL (≈ 619 µM)	19 ± 2.1 µg/mL (≈ 123 µM)	39.1 ± 2.3 µg/mL (≈ 254 µM)	176 ± 2.1 µg/mL (≈ 1140 µM)	notable antiproliferative activity against most cancer cells	–	> 400 µg/mL	–
COc1cc(/C=C/C(=O)O)ccc1O [Ferulic acid]	39.11 ± 2.3 µg/mL	126.26 ± 4.4 µg/mL	43.85 ± 1.3 µg/mL	51.73 ± 3.5 µg/mL	227.26 ± 5.1 µg/mL	–	–	–	–	–	notable antiproliferative activity against most cancer cells	˃400 µg/mL	–	–
CC[C@]1(O)C[C@@H]2CN(CCc3c([nH]c4ccccc34)[C@@](C(=O)OC)(c3cc4c(cc3OC)N(C)[C@H]3[C@@](O)(C(=O)OC)[C@H](OC(C)=O)[C@]5(CC)C=CCN6CC[C@]43[C@@H]65)C2)C1 [Vinblastine sulfate]	–	–	–	–	–	0.1 ± 0.09 µg/mL	21 ± 0.1 µg/mL	–	2.7 ± 0.06 µg/mL	65.7 ± 2.1 µg/mL	–	–	50.1 ± 2.3 µg/mL	–
Cc1cc(C(C)(C)C)c(O)c(C(C)(C)C)c1 [BHT, butylated hydroxytoluene]	–	–	–	–	–	–	–	–	–	–	–	–	–	β-Carotene-Linoleic Acid Assay (IC50) [9]: 3.2 ± 0.1c µg mL^−1; DPPH Free Radical Scavenging Activity (IC50) [10]: 2.9 ± 0.1c µg mL^−1

Further lines, with some results ahead:

In vitro antiproliferative activity IC50, Jurkat [1]	In vitro antiproliferative activity IC50, HT-29 [3]	In vitro antiproliferative activity IC50, MCF-7 [4]	In vitro antiproliferative activity IC50, HeLa [5]	In vitro antiproliferative activity IC50, T24 [8]	IC50 [1]	IC50 [3]	IC50 [4]	IC50 [5]	IC50 [8]	Molecule	Antiproliferative activity against cancer cells (in words) [6]	In vitro antiproliferative activity IC50, HEK-293 [7]	IC50 [7]	also measured
38.16 ± 0.7 µg/mL	96.16 ± 1.5 µg/mL	17.64 ± 1.8 µg/mL	36.48 ± 1.2 µg/mL	183.28 ± 4.3 µg/mL	–	–	–	–	–	O.Oc1cc(O)c2c(c1)O[C@H](c1ccc(O)c(O)c1)[C@@H](O)C2 [Catechin]	notable antiproliferative activity against most cancer cells	˃400 µg/mL	–	Accumulation of necrotic, early and late apoptotic cells [2]: high accumulation of early and late apoptotic cells
63.09 ± 1.4 µg/mL	113.15 ± 2.9 µg/mL	58.11 ± 0.9 µg/mL	65.31 ± 2.4 µg/mL	176.12 ± 3.6 µg/mL	–	–	–	–	–	Hydroxycaffeic acid	notable antiproliferative activity against most cancer cells	˃400 µg/mL	–	–
–	–	–	–	–	0.4 ± 0.05 µg/mL (≈ 0.485 µM)	47.3 ± 0.2 µg/mL (≈ 57.3 µM)	4.63 ± 1.8 µg/mL (≈ 5.61 µM)	8.5 ± 0.1 µg/mL (≈ 10.3 µM)	89.8 ± 2.5 µg/mL (≈ 109 µM)	CC[C@]1(O)C[C@H]2CN(CCc3c([nH]c4ccccc34)[C@@](C(=O)OC)(c3cc4c(cc3OC)N(C=O)[C@H]3[C@@](O)(C(=O)OC)[C@H](OC(C)=O)[C@]5(CC)C=CCN6CC[C@]43[C@@H]65)C2)C1 [Vincristine]	–	–	78.3 ± 1.6 µg/mL (≈ 94.9 µM)	–
–	–	–	–	–	–	–	0.09 ± 0.009 µg/mL (≈ 0.105 µM)	–	–	CC(=O)O[C@H]1C(=O)[C@@]2(C)[C@H]([C@H](OC(=O)c3ccccc3)[C@]3(O)C[C@H](OC(=O)[C@H](O)[C@@H](NC(=O)c4ccccc4)c4ccccc4)C(C)=C1C3(C)C)[C@]1(OC(C)=O)CO[C@@H]1C[C@@H]2O [Taxol]	–	–	–	–
